Measured values reported in PubChem BioAssay AID248 (DTP/NCI, 2004).
“And” between values parts separate entries of the source, which are not always exact repeats. Equal entries are not always repeated. Toxic doses and inconclusive results are not listed. Rule as the data show it: active = T/C of 150% or more; inactive = T/C below 125%.

Test system: L1210 leukemia ip in BDF1 mice, survival T/C
Assay: NCI In Vivo Anticancer Drug Screen. Data for tumor model L1210 Leukemia (intraperitoneal) in B6D2F1 (BDF1) mice
Details: endpoint: mean survival time, higher = longer survival
How it was run: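 Antitumor effect is assessed in tumor-bearing animals. Survival in the compound arm is compared with a vehicle-dosed control arm and expressed as their quotient.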

[1] = dose: 100.0 mg/kg/injection, schedule: Q01DX009 (ip), vehicle: Klucel (hydroxypropylcellulose) (HPC)
[2] = dose: 200.0 mg/kg/injection, schedule: Q01DX009 (ip), vehicle: Klucel (hydroxypropylcellulose) (HPC)
[3] = dose: 400.0 mg/kg/injection, schedule: Q01DX009 (ip), vehicle: Klucel (hydroxypropylcellulose) (HPC)
[4] = dose: 100.0 mg/kg/injection, schedule: Q04DX002 (ip), vehicle: gum acacia
[5] = dose: 200.0 mg/kg/injection, schedule: Q04DX002 (ip), vehicle: gum acacia
[6] = dose: 400.0 mg/kg/injection, schedule: Q04DX002 (ip), vehicle: gum acacia
[7] = dose: 50.0 mg/kg/injection, schedule: Q01DX009 (ip), vehicle: acetone
[8] = dose: 100.0 mg/kg/injection, schedule: Q04DX003 (ip), vehicle: acetone
[9] = dose: 100.0 mg/kg/injection, schedule: Q04DX003 (ip), vehicle: Klucel (hydroxypropylcellulose) (HPC)
[10] = dose: 200.0 mg/kg/injection, schedule: Q04DX003 (ip), vehicle: Klucel (hydroxypropylcellulose) (HPC)
[11] = dose: 400.0 mg/kg/injection, schedule: Q04DX003 (ip), vehicle: Klucel (hydroxypropylcellulose) (HPC)

Measured: T/C

Oc1ccc(/C=N\Nc2ccccn2)c(O)c1
inactive: [1] 88 % of control | [2] 91 % of control

CS(=O)(=O)n1c(CCl)nc2ccccc21
inactive: dose: 50.0 mg/kg/injection, schedule: Q01DX001 (ip), vehicle: saline 96 % of control | dose: 100.0 mg/kg/injection, schedule: Q01DX001 (ip), vehicle: saline 104 % of control | dose: 200.0 mg/kg/injection, schedule: Q01DX001 (ip), vehicle: saline 102 % of control | dose: 400.0 mg/kg/injection, schedule: Q01DX001 (ip), vehicle: saline 102 % of control

[O]=[Nb]
inactive: dose: 2.5 mg/kg/injection, schedule: Q01DX009 (ip), vehicle: saline with Tween-80 95 % of control | dose: 5.0 mg/kg/injection, schedule: Q01DX009 (ip), vehicle: saline with Tween-80 96 % of control | dose: 10.0 mg/kg/injection, schedule: Q01DX009 (ip), vehicle: saline with Tween-80 97 % of control

O=c1[nH]c(-c2cccc([N+](=O)[O-])c2)nc2[nH]ncc12
inactive: dose: 25.0 mg/kg/injection, schedule: Q01DX001 (ip), vehicle: Klucel (hydroxypropylcellulose) (HPC) 94 % of control | dose: 50.0 mg/kg/injection, schedule: Q01DX001 (ip), vehicle: Klucel (hydroxypropylcellulose) (HPC) 94 % of control | dose: 100.0 mg/kg/injection, schedule: Q01DX001 (ip), vehicle: Klucel (hydroxypropylcellulose) (HPC) 98 % of control

Cc1[nH]nc(C(=O)O)c1Br
inactive: dose: 25.0 mg/kg/injection, schedule: Q01DX005 (ip), vehicle: saline 100 % of control | dose: 50.0 mg/kg/injection, schedule: Q01DX005 (ip), vehicle: saline 105 % of control | dose: 100.0 mg/kg/injection, schedule: Q01DX005 (ip), vehicle: saline 122 % of control | dose: 200.0 mg/kg/injection, schedule: Q01DX005 (ip), vehicle: saline 102 % of control | dose: 400.0 mg/kg/injection, schedule: Q01DX005 (ip), vehicle: saline 113 % of control

NC(=S)Nc1ccccc1
inactive: dose: 5.0 mg/kg/injection, schedule: Q01DX001 (ip), vehicle: saline 100 % of control | dose: 10.0 mg/kg/injection, schedule: Q01DX001 (ip), vehicle: saline 96 % of control | dose: 20.0 mg/kg/injection, schedule: Q01DX001 (ip), vehicle: saline 102 % of control | dose: 40.0 mg/kg/injection, schedule: Q01DX001 (ip), vehicle: saline 101 % of control | dose: 80.0 mg/kg/injection, schedule: Q01DX001 (ip), vehicle: saline 97 % of control

OC(c1nc2ccc(Cl)cc2[nH]1)C(O)c1nc2ccc(Cl)cc2[nH]1 (stereo not given)
inactive: dose: 75.0 mg/kg/injection, schedule: Q01DX001 (ip), vehicle: other 102 % of control | dose: 150.0 mg/kg/injection, schedule: Q01DX001 (ip), vehicle: other 96 % of control | dose: 300.0 mg/kg/injection, schedule: Q01DX001 (ip), vehicle: other 91 % of control

O=C1OC(CO)C(OC2OC(CO)C(O)C(O)C2O)C(O)C1O (stereo not given)
inactive: dose: 100.0 mg/kg/injection, schedule: Q01DX009 (ip), vehicle: saline 97 % of control | dose: 200.0 mg/kg/injection, schedule: Q01DX009 (ip), vehicle: saline 98 % of control | dose: 400.0 mg/kg/injection, schedule: Q01DX009 (ip), vehicle: saline 97 % of control

OC(c1ccc(Cl)cc1)(c1ccc(Cl)cc1)C(F)(F)F
inactive: dose: 100.0 mg/kg/injection, schedule: Q01DX009 (sc), vehicle: olive oil, sesame oil, peanut oil 113 % of control | dose: 100.0 mg/kg/injection, schedule: Q04DX003 (sc), vehicle: olive oil, sesame oil, peanut oil 100 % of control | dose: 200.0 mg/kg/injection, schedule: Q01DX009 (sc), vehicle: olive oil, sesame oil, peanut oil 101 % of control | dose: 200.0 mg/kg/injection, schedule: Q04DX003 (sc), vehicle: olive oil, sesame oil, peanut oil 97 % of control | dose: 400.0 mg/kg/injection, schedule: Q04DX003 (sc), vehicle: olive oil, sesame oil, peanut oil 113 % of control

C[N+]1(C)CCNC(=O)CC1
inactive: dose: 75.0 mg/kg/injection, schedule: Q01DX001 (ip), vehicle: saline 105 % of control | dose: 150.0 mg/kg/injection, schedule: Q01DX001 (ip), vehicle: saline 94 % of control | dose: 300.0 mg/kg/injection, schedule: Q01DX001 (ip), vehicle: saline 105 % of control

O=S(=O)(O)CCN1CCN(CCS(=O)(=O)O)CC1
inactive: [1] 95 % of control | [2] 95 % of control | [3] 101 % of control

O=C1CCCc2c1cc(C1CCCC1)c1ccccc21
inactive: dose: 100.0 mg/kg/injection, schedule: Q01DX001 (ip), vehicle: carboxymethylcellulose (CMC) 92 % of control | dose: 200.0 mg/kg/injection, schedule: Q01DX001 (ip), vehicle: carboxymethylcellulose (CMC) 95 % of control | dose: 400.0 mg/kg/injection, schedule: Q01DX001 (ip), vehicle: carboxymethylcellulose (CMC) 98 % of control

CC[C@](C)(O)C(=O)O[C@H]1C(=O)O[C@@H]2C[C@H]3C(C)=CC(=O)[C@@H](O)[C@]3(C)[C@H]3[C@@]4(O)OC[C@]32[C@@H]1[C@@H](C)[C@H]4O
inactive: dose: 0.2 mg/kg/injection, schedule: Q01DX009 (ip), vehicle: saline 98 % of control | dose: 0.3 mg/kg/injection, schedule: Q01DX009 (ip), vehicle: saline 100 % of control | dose: 0.44 mg/kg/injection, schedule: Q01DX009 (ip), vehicle: saline 92 % of control | dose: 0.66 mg/kg/injection, schedule: Q01DX009 (ip), vehicle: saline 92 % of control | dose: 1.0 mg/kg/injection, schedule: Q01DX009 (ip), vehicle: saline 102 % of control

NC(N)=N/N=C(/CC(=O)c1ccccc1)c1ccccc1
inactive: dose: 15.0 mg/kg/injection, schedule: Q01DX Z (ip), vehicle: carboxymethylcellulose (CMC) 103 % of control | dose: 30.0 mg/kg/injection, schedule: Q01DX Z (ip), vehicle: carboxymethylcellulose (CMC) 107 % of control | dose: 30.0 mg/kg/injection, schedule: Q01DX Z (oral), vehicle: carboxymethylcellulose (CMC) 98 % of control | dose: 60.0 mg/kg/injection, schedule: Q01DX Z (ip), vehicle: carboxymethylcellulose (CMC) 101 % of control | dose: 60.0 mg/kg/injection, schedule: Q01DX Z (oral), vehicle: carboxymethylcellulose (CMC) 96 % of control | dose: 120.0 mg/kg/injection, schedule: Q01DX Z (oral), vehicle: carboxymethylcellulose (CMC) 98 % of control | dose: 240.0 mg/kg/injection, schedule: Q01DX Z (oral), vehicle: carboxymethylcellulose (CMC) 93 % of control and 100 % of control | dose: 480.0 mg/kg/injection, schedule: Q01DX Z (oral), vehicle: carboxymethylcellulose (CMC) 100 % of control

O=C(O)C(Sc1ccccc1)c1ccccc1 (stereo not given)
inactive: [4] 100 % of control | [5] 100 % of control | [6] 104 % of control

CC(O)c1cccc(N(C)C)c1 (stereo not given)
inactive: [7] 93 % of control | dose: 100.0 mg/kg/injection, schedule: Q01DX009 (ip), vehicle: acetone 95 % of control | [8] 96 % of control | dose: 200.0 mg/kg/injection, schedule: Q01DX009 (ip), vehicle: acetone 93 % of control | dose: 200.0 mg/kg/injection, schedule: Q04DX003 (ip), vehicle: acetone 96 % of control | dose: 400.0 mg/kg/injection, schedule: Q04DX003 (ip), vehicle: acetone 101 % of control

O=C1CNc2ccccc2N1
inactive: [9] 103 % of control | [10] 92 % of control | [11] 92 % of control

CCCCCCCCCN1C(=O)c2ccccc2S1(=O)=O
inactive: dose: 222.0 mg/kg/injection, schedule: Q01DX Z (ip), vehicle: saline 100 % of control | dose: 333.0 mg/kg/injection, schedule: Q01DX Z (ip), vehicle: saline 97 % of control | dose: 500.0 mg/kg/injection, schedule: Q01DX Z (ip), vehicle: saline 91 % of control

Cc1c(C)c(Cl)c(C)c(Cl)c1O
inactive: [1] 94 % of control | [9] 98 % of control | [2] 89 % of control | [10] 93 % of control | [3] 91 % of control | [11] 105 % of control

N#Cc1nnn(-c2ccccc2)n1
inactive: dose: 25.0 mg/kg/injection, schedule: Q01DX009 (ip), vehicle: acetone 101 % of control | [7] 111 % of control | dose: 50.0 mg/kg/injection, schedule: Q04DX003 (ip), vehicle: acetone 93 % of control | dose: 100.0 mg/kg/injection, schedule: Q01DX001 (ip), vehicle: acetone 99 % of control | [8] 88 % of control | dose: 200.0 mg/kg/injection, schedule: Q01DX001 (ip), vehicle: acetone 99 % of control

O=P(NC1CCCCC1)(NC1CCCCC1)c1ccccc1
inactive: [4] 104 % of control | [5] 93 % of control | [6] 96 % of control
